Among the data in patent EP4049726A1, “IMIDAZO[1,2-A]PYRAZINES AS INHIBITORS OF HASPIN AND THERAPEUTIC USES THEREOF” (Fundación del Sector Público Estatal Centro Nacional de …, priority 2021, dated 2022) are IC50 values, retold here.

The experiment addresses T1, HASPIN (Homo sapiens, UniProt Q8TF76).
T1 sequence (Q8TF76 1-798): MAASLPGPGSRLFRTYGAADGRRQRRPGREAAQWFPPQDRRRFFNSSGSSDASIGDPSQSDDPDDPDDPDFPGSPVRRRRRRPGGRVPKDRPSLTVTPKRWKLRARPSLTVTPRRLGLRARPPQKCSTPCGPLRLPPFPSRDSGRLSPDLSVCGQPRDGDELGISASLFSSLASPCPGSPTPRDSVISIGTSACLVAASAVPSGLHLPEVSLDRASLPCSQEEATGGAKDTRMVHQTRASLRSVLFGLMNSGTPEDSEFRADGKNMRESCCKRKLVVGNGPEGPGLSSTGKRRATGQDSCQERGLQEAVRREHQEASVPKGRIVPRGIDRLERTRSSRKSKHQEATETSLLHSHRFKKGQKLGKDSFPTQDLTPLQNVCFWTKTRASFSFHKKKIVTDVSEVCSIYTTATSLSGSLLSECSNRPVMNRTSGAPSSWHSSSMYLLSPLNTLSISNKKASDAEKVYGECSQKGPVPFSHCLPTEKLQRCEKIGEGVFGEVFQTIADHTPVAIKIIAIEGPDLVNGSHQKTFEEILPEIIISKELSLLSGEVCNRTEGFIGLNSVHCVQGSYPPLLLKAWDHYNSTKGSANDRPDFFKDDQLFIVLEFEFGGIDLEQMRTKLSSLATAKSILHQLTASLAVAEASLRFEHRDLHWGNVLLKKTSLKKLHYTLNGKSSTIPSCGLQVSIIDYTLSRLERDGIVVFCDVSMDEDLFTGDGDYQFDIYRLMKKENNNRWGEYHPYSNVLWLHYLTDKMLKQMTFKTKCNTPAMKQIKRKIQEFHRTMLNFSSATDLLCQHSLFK
Briefly: HASPIN biochemical assay (ADP-Glo, HASPIN autophosphorylation). The conditions noted are these: ATP 150 µM, 60 min at 30 °C. The protocol:
HASPIN biochemical Assay: The biochemical assay to measure HASPIN activity relies on the ADP-Glo™ assay kit (Promega) that determines the amount of ADP as direct product of the kinase enzyme activity. Assay conditions were as indicated by the kit manufacturers with the following adaptations for the kinase activity step: Kinase assay buffer and assay volume (15 mM HEPES pH 7.5, 20 mM NaCl, 1 mM EGTA, 0.02% TWEEN 20, 10 mM MgCl2, 0.1 mg/mL BGG)/25 µL assay volume). Incubation time and temperature: 60 min at 30 °C. HASPIN final concentration: 0.9 µg/mL. ATP final concentration: 150 µM. HASPIN autophosphorylation was measured. Assays were performed in 384-well plates. The final outcome of the coupled reactions provided by the kit is the release of […] and has been measured with a multilabel HTS counter Victor V / Envision. Values were normalized against the control activity included (100% HASPIN activity, without compound). Values were plotted against the inhibitor concentration and fit to a sigmoid dose-response curve using Activity base by IDBS software.
For orientation: In ADP-Glo the light output rises with the ADP produced.
In turn, `NC(=O)c1cn2cc(-c3ccns3)nc(NCC3(F)CCNCC3)c2n1` [Compound 46, 8-[(4-Fluoro-piperidin-4-ylmethyl)-amino]-6-isothiazol-5-yl-imidazo[1,2-a]pyrazine-2-carboxylic acid amide] gave an IC50 of 85.6 nM.

`NC(=O)c1cn2cc(-c3ccncc3Cl)nc(NCC3CCNCC3)c2n1` [Compound 30, 6-(3-Chloro-pyridin-4-yl)-8-[(piperidin-4-ylmethyl)-amino]-imidazo[1,2-a]pyrazine-2-carboxylic acid amide] returned an IC50 of 187 nM. As for `COCCNC(=O)c1cn2cc(-c3ccncc3)nc(NCC3CCNCC3)c2n1` [Compound 5, 8-[(Piperidin-4-ylmethyl)-amino]-6-pyridin-4-yl-imidazo[1,2-a]pyrazine-2-carboxylic acid (2-methoxy-ethyl)-amide], the figure is 229 nM; as for `Cc1c(C(N)=O)nc2c(NCC3(F)CCNCC3)nc(-c3ccnc(Cl)c3)cn12` [Compound 25, 6-(2-Chloro-pyridin-4-yl)-8-[(4-fluoro-piperidin-4-ylmethyl)-amino]-3-methyl-imidazo[1,2-a]pyrazine-2-carboxylic acid amide], 157 nM; as for `NC(=O)c1cn2cc(-c3ccnc(N)c3)nc(NCC3(F)CCNCC3)c2n1` [Compound 41, 6-(2-Amino-pyridin-4-yl)-8-[(4-fluoro-piperidin-4-ylmethyl)-amino]-imidazo[1,2-a]pyrazine-2-carboxylic acid amide], 34.5 nM. `COCCNC(=O)c1nc2c(NCC3(C#N)CCNCC3)nc(-c3ccncc3)cn2c1C` [Compound 18, 8-[(4-Cyano-piperidin-4-ylmethyl)-amino]-3-methyl-6-pyridin-4-yl-imidazo[1,2-a]pyrazine-2-carboxylic acid (2-methoxy-ethyl)-amide] returned an IC50 of 138 nM. The compound `CNC(=O)c1nc2c(NCC3(C#N)CCNCC3)nc(-c3ccncc3)cn2c1C` [Compound 17, 8-[(4-Cyano-piperidin-4-ylmethyl)-amino]-3-methyl-6-pyridin-4-yl-imidazo[1,2-a]pyrazine-2-carboxylic acid methylamide] gave an IC50 of 18.2 nM. As for `CNC(=O)c1nc2c(NCC3(C#N)CCNCC3)nc(-c3ccnc(Cl)c3)cn2c1C` [Compound 21, 6-(2-Chloro-pyridin-4-yl)-8-[(4-cyano-piperidin-4-ylmethyl)-amino]-3-methyl-imidazo[1,2-a]pyrazine-2-carboxylic acid methylamide], the figure is 151 nM; as for `Cc1c(C(N)=O)nc2c(NCC3CCNCC3)nc(-c3ccnc(Cl)c3)cn12` [Compound 12, 6-(2-Chloro-pyridin-4-yl)-3-methyl-8-[(piperidin-4-ylmethyl)-amino]-imidazo[1,2-a]pyrazine-2-carboxylic acid amide], 253 nM; as for `N#CC1(CNc2nc(-c3ccncc3F)cn3cc(C(N)=O)nc23)CCNCC1` [Compound 29, 8-[(4-Cyano-piperidin-4-ylmethyl)-amino]-6-(3-fluoro-pyridin-4-yl)-imidazo[1,2-a]pyrazine-2-carboxylic acid amide], 6.59 nM. `CNC(=O)c1nc2c(NCC3CCNCC3)nc(-c3ccncc3F)cn2c1C` [Compound 35, 6-(3-Fluoro-pyridin-4-yl)-3-methyl-8-[(piperidin-4-ylmethyl)-amino]-imidazo[1,2-a]pyrazine-2-carboxylic acid methylamide] registered an IC50 of 94.8 nM. `N#CC1(CNc2nc(-c3ccnc(Cl)c3)cn3cc(C(N)=O)nc23)CCNCC1` [Compound 6, 6-(2-Chloro-pyridin-4-yl)-8-[(4-cyano-piperidin-4-ylmethyl)-amino]-imidazo[1,2-a]pyrazine-2-carboxylic acid amide] yielded an IC50 of 59.6 nM. The compound `Cc1c(C(N)=O)nc2c(NCC3(C#N)CCNCC3)nc(-c3ccnc(Cl)c3)cn12` [Compound 24, 6-(2-Chloro-pyridin-4-yl)-8-[(4-cyano-piperidin-4-ylmethyl)-amino]-3-methyl-imidazo[1,2-a]pyrazine-2-carboxylic acid amide] registered an IC50 of 111 nM. As for `CNC(=O)c1nc2c(NCC3CCNCC3)nc(-c3ccncc3)cn2c1C` [Compound 7, 3-Methyl-8-[(piperidin-4-ylmethyl)-amino]-6-pyridin-4-yl-imidazo[1,2-a]pyrazine-2-carboxylic acid methylamide], the figure is 60 nM; as for `CNC(=O)c1nc2c(NCC3(F)CCNCC3)nc(-c3ccncc3)cn2c1C` [Compound 14, 8-[(4-Fluoro-piperidin-4-ylmethyl)-amino]-3-methyl-6-pyridin-4-yl-imidazo[1,2-a]pyrazine-2-carboxylic acid methylamide], 78 nM. As for `NC(=O)c1cn2cc(-c3ccncc3)nc(NCC3(F)CCNCC3)c2n1` [Compound 15, 8-[(4-Fluoro-piperidin-4-ylmethyl)-amino]-6-pyridin-4-yl-imidazo[1,2-a]pyrazine-2-carboxylic acid amide], the figure is 25.9 nM; as for `Cc1c(C(N)=O)nc2c(NCC3CCNCC3)nc(-c3ccncc3)cn12` [Compound 9, 3-Methyl-8-[(piperidin-4-ylmethyl)-amino]-6-pyridin-4-yl-imidazo[1,2-a]pyrazine-2-carboxylic acid amide], 180 nM. As for `Cc1c(C(N)=O)nc2c(NCC3(F)CCNCC3)nc(-c3ccncc3)cn12` [Compound 16, 8-[(4-Fluoro-piperidin-4-ylmethyl)-amino]-3-methyl-6-pyridin-4-yl-imidazo[1,2-a]pyrazine-2-carboxylic acid amide], the figure is 96 nM. On to `NC(=O)c1cn2cc(-c3ccncc3)nc(NCC3CCNCC3)c2n1` [Compound 2, 8-[(Piperidin-4-ylmethyl)-amino]-6-pyridin-4-yl-imidazo[1,2-a]pyrazine-2-carboxylic acid amide], for which the IC50 was found to be 30 nM. As for `CNC(=O)c1cn2cc(-c3ccncc3F)nc(NCC3CCNCC3)c2n1` [Compound 28, 6-(3-Fluoro-pyridin-4-yl)-8-[(piperidin-4-ylmethyl)-amino]-imidazo[1,2-a]pyrazine-2-carboxylic acid methylamide], the figure is 19.5 nM. `CNC(=O)c1cn2cc(-c3ccncc3Cl)nc(NCC3CCNCC3)c2n1` [Compound 31, 6-(3-Chloro-pyridin-4-yl)-8-[(piperidin-4-ylmethyl)-amino]-imidazo[1,2-a]pyrazine-2-carboxylic acid methylamide] registered an IC50 of 189 nM. The compound `CNC(=O)c1nc2c(NCC3CCNCC3)nc(-c3ccnc(Cl)c3)cn2c1C` [Compound 11, 6-(2-Chloro-pyridin-4-yl)-3-methyl-8-[(piperidin-4-ylmethyl)-amino]-imidazo[1,2-a]pyrazine-2-carboxylic acid methylamide] returned an IC50 of 65 nM. Compound `NC(=O)c1cn2cc(-c3ccncc3)nc(N[C@H]3CC[C@@H](N)CC3)c2n1` [Compound 39, 8-(cis-4-Amino-cyclohexylamino)-6-pyridin-4-yl-imidazo[1,2-a]pyrazine-2-carboxylic acid amide] returned a 50% inhibitory concentration (IC50) of 140 nM. The compound `Cc1c(C(N)=O)nc2c(NCC3(C#N)CCNCC3)nc(-c3ccncc3)cn12` [Compound 19, 8-[(4-Cyano-piperidin-4-ylmethyl)-amino]-3-methyl-6-pyridin-4-yl-imidazo[1,2-a]pyrazine-2-carboxylic acid amide] showed an IC50 of 45.7 nM. As for `CNC(=O)c1nc2c(NCC3(F)CCNCC3)nc(-c3ccnc(Cl)c3)cn2c1C` [Compound 20, 6-(2-Chloro-pyridin-4-yl)-8-[(4-fluoro-piperidin-4-ylmethyl)-amino]-3-methyl-imidazo[1,2-a]pyrazine-2-carboxylic acid methylamide], the figure is 78.8 nM; as for `NC(=O)c1cn2cc(-c3ccncc3)nc(NCC3(O)CCNCC3)c2n1` [Compound 44, 8-[(4-Hydroxy-piperidin-4-ylmethyl)-amino]-6-pyridin-4-yl-imidazo[1,2-a]pyrazine-2-carboxylic acid amide], 46.8 nM.

For orientation: IC50 means the concentration at which inhibition is half-maximal. The low end stands for inhibition by little substance, the high end for a need for much substance.
